Reference: patent US20050112573A1, “Method of detecting toxic substance” (priority 2001, published 2005)

Test system: yeast genes (level of expressed mRNA)
Assay: DNA chip analysis of expressed mRNA of yeast genes after 2 h culture with a toxic chemical substance
Format: cell-based, Saccharomyces cerevisiae S288C
Settings: for The level of expressed mRNA in the presence of chemical substance/ (ratio to absence): transport facilitation protein gene; for The level of expressed mRNA in the presence of chemical substance/: ratio to no chemical; for The level of expressed mRNA in the presence of chemical substance/ (ratio to absence of chemical substance): stress protein genes, DNA chip
How it was run: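 S. cerevisiae S288C in YPD at 25 °C was exposed at log phase for 2 h to a growth-inhibiting, non-lethal concentration of the chemical. Poly(A) mRNA was reverse-transcribed with Cy3- or Cy5-dUTP and hybridized to a whole-genome yeast DNA chip (65 °C, >12 h). Values are fluorescence ratios versus untreated cells.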

sodium dodecylbenzosulfonate [(17)]
1.4: The level of expressed mRNA in the presence of chemical substance/in the absence of chemical substance (yeast gene YLR155C) | The level of expressed mRNA in the presence of chemical substance/in the absence of chemical substance (yeast gene YLR158C) | The level of expressed mRNA in the presence of chemical substance/The level of expressed mRNA in the absence of chemical substance (yeast gene YLR250W) | The level of expressed mRNA in the presence of chemical substance/The level of expressed mRNA in the absence of chemical substance (yeast gene YLR391W)
0.7: The level of expressed mRNA in the presence of chemical substance/ (ratio to absence of chemical substance) (yeast gene YMR186W) | The level of expressed mRNA in the presence of chemical substance/ (in its absence), gene YNL025C (yeast gene YNL025C, ratio of DNA chip fluorescence intensity to that without chemical substance) | The level of expressed mRNA in the presence of chemical substance/ (ratio to absence of chemical substance) (yeast gene YNL064C)
1.9: The level of expressed mRNA in the presence of chemical substance/ (in its absence), gene YKR009C (yeast gene YKR009C, ratio of DNA chip fluorescence intensity to that without chemical substance)
3.3: The level of expressed mRNA in the presence of chemical substance/The level of expressed mRNA in the absence of chemical substance (yeast gene YLR327C)
0.9: The level of expressed mRNA in the presence of chemical substance/ (ratio to absence) (yeast gene YKR039W) | The level of expressed mRNA in the presence of chemical substance/ (yeast gene YKR071C) | The level of expressed mRNA in the presence of chemical substance/ (ratio to absence) (yeast gene YKR106W) | The level of expressed mRNA in the presence of chemical substance/ (yeast gene YLL062C) | The level of expressed mRNA in the presence of chemical substance/in the absence of chemical substance (yeast gene YLR195C) | The level of expressed mRNA in the presence of chemical substance/ in its absence, gene YLR295C (yeast gene YLR295C, energy system protein genes, 2 h culture with the chemical, ratio to control without chemical) | The level of expressed mRNA in the presence of chemical substance/ (ratio to absence), gene YLR295C (yeast gene YLR295C, mitochondria-located protein genes, 2 h culture with chemical) | The level of expressed mRNA in the presence of chemical substance/ (ratio to absence) (yeast gene YLR378C) | The level of expressed mRNA in the presence of chemical substance/The level of expressed mRNA in the absence of chemical substance (yeast gene YMR004W) | The level of expressed mRNA in the presence of chemical substance/ in its absence, gene YMR267W (yeast gene YMR267W, energy system protein genes, 2 h culture with the chemical, ratio to control without chemical) | The level of expressed mRNA in the presence of chemical substance/ (ratio to absence), gene YMR267W (yeast gene YMR267W, mitochondria-located protein genes, 2 h culture with chemical) | The level of expressed mRNA in the presence of chemical substance/ in its absence, gene YMR267W (yeast gene YMR267W, ratio of DNA chip fluorescence intensity to that without chemical substance) | The level of expressed mRNA in the presence of chemical substance/The level of expressed mRNA in the absence of chemical substance (yeast gene YMR275C)
1.1: The level of expressed mRNA in the presence of chemical substance/ (ratio to absence) (yeast gene YKL188C) | The level of expressed mRNA in the presence of chemical substance/ (ratio to absence) (yeast gene YKL209C) | The level of expressed mRNA in the presence of chemical substance/in the absence of chemical substance (yeast gene YKR097W) | The level of expressed mRNA in the presence of chemical substance/ (ratio to absence) (yeast gene YLL055W) | The level of expressed mRNA in the presence of chemical substance/in the absence of chemical substance (yeast gene YLR133W) | The level of expressed mRNA in the presence of chemical substance/ (yeast gene YLR156W) | The level of expressed mRNA in the presence of chemical substance/ (ratio to absence) (yeast gene YLR348C) | The level of expressed mRNA in the presence of chemical substance/The level of expressed mRNA in the absence of chemical substance (yeast gene YLR356W) | The level of expressed mRNA in the presence of chemical substance/ (ratio to absence), gene YMR023C (yeast gene YMR023C, mitochondria-located protein genes, 2 h culture with chemical) | The level of expressed mRNA in the presence of chemical substance/ (yeast gene YMR178W) | The level of expressed mRNA in the presence of chemical substance/The level of expressed mRNA in the absence of chemical substance (yeast gene YMR219W) | The level of expressed mRNA in the presence of chemical substance/The level of expressed mRNA in the absence of chemical substance (yeast gene YNL007C)
2.5: The level of expressed mRNA in the presence of chemical substance/in the absence of chemical substance (yeast gene YKL218C) | The level of expressed mRNA in the presence of chemical substance/in the absence of chemical substance (yeast gene YML131W)
1.7: The level of expressed mRNA in the presence of chemical substance/ (ratio to absence) (yeast gene YKL217W)
1.0: The level of expressed mRNA in the presence of chemical substance/ (ratio to absence) (yeast gene YKL192C) | The level of expressed mRNA in the presence of chemical substance/ (yeast gene YLL025W) | The level of expressed mRNA in the presence of chemical substance/ (ratio to absence) (yeast gene YLR092W) | The level of expressed mRNA in the presence of chemical substance/ (yeast gene YLR108C) | The level of expressed mRNA in the presence of chemical substance/ (yeast gene YLR145W) | The level of expressed mRNA in the presence of chemical substance/ (in its absence), gene YLR375W (yeast gene YLR375W, ratio of DNA chip fluorescence intensity to that without chemical substance) | The level of expressed mRNA in the presence of chemical substance/The level of expressed mRNA in the absence of chemical substance (yeast gene YLR429W) | The level of expressed mRNA in the presence of chemical substance/ (yeast gene YML068W) | The level of expressed mRNA in the presence of chemical substance/ (ratio to absence) (yeast gene YML116W) | The level of expressed mRNA in the presence of chemical substance/ (ratio to absence) (yeast gene YMR056C) | The level of expressed mRNA in the presence of chemical substance/The level of expressed mRNA in the absence of chemical substance (yeast gene YMR094W) | The level of expressed mRNA in the presence of chemical substance/ (in its absence), gene YMR278W (yeast gene YMR278W, ratio of DNA chip fluorescence intensity to that without chemical substance) | The level of expressed mRNA in the presence of chemical substance/The level of expressed mRNA in the absence of chemical substance (yeast gene YNL006W) | The level of expressed mRNA in the presence of chemical substance/in the absence of chemical substance (yeast gene YNL071W) | The level of expressed mRNA in the presence of chemical substance/ (yeast gene YNL122C) | The level of expressed mRNA in the presence of chemical substance/ (ratio to absence) (yeast gene YNL142W)
3.0: The level of expressed mRNA in the presence of chemical substance/The level of expressed mRNA in the absence of chemical substance (yeast gene YNL093W)
1.3: The level of expressed mRNA in the presence of chemical substance/ (yeast gene YKR020W) | The level of expressed mRNA in the presence of chemical substance/in the absence of chemical substance (yeast gene YLR027C) | The level of expressed mRNA in the presence of chemical substance/ (yeast gene YLR290C) | The level of expressed mRNA in the presence of chemical substance/ (yeast gene YLR311C) | The level of expressed mRNA in the presence of chemical substance/ (in its absence), gene YLR351C (yeast gene YLR351C, ratio of DNA chip fluorescence intensity to that without chemical substance) | The level of expressed mRNA in the presence of chemical substance/ in its absence, gene YML129C (yeast gene YML129C, energy system protein genes, 2 h culture with the chemical, ratio to control without chemical) | The level of expressed mRNA in the presence of chemical substance/ (ratio to absence), gene YML129C (yeast gene YML129C, mitochondria-located protein genes, 2 h culture with chemical) | The level of expressed mRNA in the presence of chemical substance/The level of expressed mRNA in the absence of chemical substance (yeast gene YMR314W)
2.0: The level of expressed mRNA in the presence of chemical substance/The level of expressed mRNA in the absence of chemical substance (yeast gene YLR178C)
1.8: The level of expressed mRNA in the presence of chemical substance/The level of expressed mRNA in the absence of chemical substance (yeast gene YLR136C) | The level of expressed mRNA in the presence of chemical substance/ (yeast gene YMR034C)
1.2: The level of expressed mRNA in the presence of chemical substance/The level of expressed mRNA in the absence of chemical substance (yeast gene YKL193C) | The level of expressed mRNA in the presence of chemical substance/ (ratio to absence) (yeast gene YLL028W) | The level of expressed mRNA in the presence of chemical substance/ (yeast gene YLR247C) | The level of expressed mRNA in the presence of chemical substance/ (yeast gene YLR267W) | The level of expressed mRNA in the presence of chemical substance/ (yeast gene YLR280C) | The level of expressed mRNA in the presence of chemical substance/in the absence of chemical substance (yeast gene YLR345W) | The level of expressed mRNA in the presence of chemical substance/The level of expressed mRNA in the absence of chemical substance (yeast gene YLR362W) | The level of expressed mRNA in the presence of chemical substance/ (yeast gene YMR253C) | The level of expressed mRNA in the presence of chemical substance/The level of expressed mRNA in the absence of chemical substance (yeast gene YMR276W) | The level of expressed mRNA in the presence of chemical substance/ (ratio to absence) (yeast gene YNL055C)
1.5: The level of expressed mRNA in the presence of chemical substance/in the absence of chemical substance (yeast gene YLR303W) | The level of expressed mRNA in the presence of chemical substance/in the absence of chemical substance (yeast gene YML004C)
3.5: The level of expressed mRNA in the presence of chemical substance/The level of expressed mRNA in the absence of chemical substance (yeast gene YLR120C)
0.6: The level of expressed mRNA in the presence of chemical substance/ (ratio to absence) (yeast gene YLL061W) | The level of expressed mRNA in the presence of chemical substance/ (ratio to absence) (yeast gene YMR058W)
2.8: The level of expressed mRNA in the presence of chemical substance/ (ratio to absence of chemical substance) (yeast gene YKR053C) | The level of expressed mRNA in the presence of chemical substance/The level of expressed mRNA in the absence of chemical substance (yeast gene YMR104C)
1.6: The level of expressed mRNA in the presence of chemical substance/ (in its absence), gene YLR006C (yeast gene YLR006C, ratio of DNA chip fluorescence intensity to that without chemical substance) | The level of expressed mRNA in the presence of chemical substance/ (ratio to absence of chemical substance) (yeast gene YLR006C) | The level of expressed mRNA in the presence of chemical substance/The level of expressed mRNA in the absence of chemical substance (yeast gene YMR226C)
2.3: The level of expressed mRNA in the presence of chemical substance/ (in its absence), gene YNL192W (yeast gene YNL192W, ratio of DNA chip fluorescence intensity to that without chemical substance)
0.8: The level of expressed mRNA in the presence of chemical substance/ (ratio to absence) (yeast gene YKL221W) | The level of expressed mRNA in the presence of chemical substance/ (yeast gene YKR007W) | The level of expressed mRNA in the presence of chemical substance/ (in its absence), gene YKR034W (yeast gene YKR034W, ratio of DNA chip fluorescence intensity to that without chemical substance) | The level of expressed mRNA in the presence of chemical substance/ in its absence, gene YKR058W (yeast gene YKR058W, energy system protein genes, 2 h culture with the chemical, ratio to control without chemical) | The level of expressed mRNA in the presence of chemical substance/ (ratio to absence) (yeast gene YKR105C) | The level of expressed mRNA in the presence of chemical substance/ (yeast gene YMR041C) | The level of expressed mRNA in the presence of chemical substance/ (ratio to absence) (yeast gene YMR203W) | The level of expressed mRNA in the presence of chemical substance/ (in its absence), gene YMR293C (yeast gene YMR293C, ratio of DNA chip fluorescence intensity to that without chemical substance) | The level of expressed mRNA in the presence of chemical substance/ (ratio to absence), gene YNL073W (yeast gene YNL073W, mitochondria-located protein genes, 2 h culture with chemical)
